This passage reports melting point results from a melting point compilation (Tetko et al.; mined from patent text by program, amines drawn as free bases though some values may be those of a salt).

A value given as a limit tells only on which side of the number the result lay.

For orientation: melting point means the temperature of the solid-liquid transition. Regarding `CC(C)(C)OC(=O)NCC(COS(C)(=O)=O)NC(=O)OC(C)(C)C` (stereo not drawn), the melting point was 94 to 96 °C.

Turning to `Nc1c([N+](=O)[O-])cnn1-c1c(Cl)cc(Cl)cc1Cl`, the melting point lay in the range of 218 to 220 °C.

The compound `ON=Cc1ccc(-c2ccc(Cl)cc2)o1` had a melting point of 139 to 141 °C. As for `COC(=O)C1(c2ccc([N+](=O)[O-])cc2)CO1` (stereo not drawn), the figure is 78 to 82 °C; as for `CCc1ccc(C2C(=O)Oc3c2cc(C(C)(C)C)cc3C(C)(C)C)cc1` (stereo not drawn), 127 to 132 °C; as for `CC1(C)CCc2c(N3CCCC3)nc3sc4c(NCc5ccccn5)ncnc4c3c2C1`, 212 to 213 °C.

In turn, `Cc1ccc(CC2CCN(C(=O)C(=O)Nc3ccc4[nH]c(=O)oc4c3)CC2)cc1` yielded a melting point of 133 to 135 °C. In turn, `CCCCC(CC)COC(=O)CSCc1cc(C(C)(C)C)c(O)c(C(C)(C)C)c1` (stereo not drawn) had a melting point of 20 °C. As for `Cc1ccc(NC(=O)c2ccc3c(c2)C(=O)N(c2c(C)cccc2C)C3=O)cc1C`, the figure is 223 to 225 °C; as for `NS(=O)(=O)c1cc2cc(O)cnc2s1`, 270 to 271 °C; as for `Nc1n[nH]c2ccc(OCc3ccccc3)cc12`, 193 to 195 °C. As for `O=c1[nH]c2cc(Br)cc3c2n(c1=O)CC3`, the figure is greater than 300 °C. As to `CSCc1cc(C(C)=O)c(O)cc1OCCCCCCC#N`, the melting point was 78 °C. For the compound `COc1ccc(CC2Cc3cccc(-c4cccc(C(=O)NCCN5CCCC5)c4)c3O2)cc1OC` (stereo not drawn), the melting point is 134 to 135 °C. The compound `CNc1ccc(C#Cc2cncc(-c3nc(NC)nc4cc(OC)c(OC)cc34)c2)cn1` displayed a melting point of 160 to 162 °C. As for `Cc1cccc(N2C(=O)C(=NO)c3ccccc32)c1C`, the figure is 215 to 216 °C. As for `COc1cc(Cl)ccc1C(=O)Nc1ccc(C(=O)N2Cc3cccn3Cc3ccccc32)cc1`, the figure is 222 to 224 °C; as for `NC(=O)COc1ccccc1[N+](=O)[O-]`, 190 to 191 °C. In the case of `CC1(c2ccccc2)CNC(=O)O1` (stereo not drawn), the melting point lay within 144 to 145 °C. In turn, `CCOC(=O)c1ccc(N2CSCC2=O)cc1` had a melting point of 68 to 69 °C. As for `CCCCCCCc1cn2cc(-c3ccc(O)cc3)nc2s1`, the figure is 122 °C. As for `CCCCCCCCCCCCCCOc1cccc(CC(=O)OC)c1`, the figure is 31 to 33 °C; as for `Cc1cnc2c(N)ccc(C)c2c1Cl`, 120 to 122 °C. As for `Cn1ncc(Cl)c(NCCCO)c1=O`, the figure is 65 to 66 °C; as for `CCOC(=O)[C@H](C[C@H](Cc1ccc(OC)c(OCCCOC)c1)C(C)C)NC(=O)OC(C)(C)C`, 59 to 60 °C. As for `CCc1cn(C(C)(C)C(=O)N(C)C)nc1-c1ccccc1Cl`, the melting point lay within 102 to 104 °C. As for `CON=C1CN(c2c(F)cc3c(=O)c(C(=O)O)cn(C4CC4)c3c2Cl)CC12CN(C(=O)OC(C)(C)C)C2`, the figure is 203 to 204 °C; as for `CCOC(=O)COc1cc(F)ccc1[N+](=O)[O-]`, 37 to 39 °C; as for `Nc1cc(CO)cc(Nc2c3ccccc3nc3occc23)c1`, 236 to 237 °C. Turning to `O=C(O)/C=C(\c1cc(F)cc(F)c1)C(F)(F)F`, the melting point was in the range of 129 to 130 °C. As for `Cc1ccc(S(=O)(=O)N2CC(CO)(C(=O)O)C2)cc1`, the figure is 148 to 150 °C; as for `CC(C)(C)c1ncc([C@H]2[C@H](C(=O)O)C2(C)C)cn1` (relative stereo), 168 to 169 °C; as for `FCC1(CF)OC1(CBr)c1cc(C(F)(F)F)ccc1Cl` (stereo not drawn), 54 to 55 °C.

`CC(=O)Nc1cc(-c2ccc(S(C)(=O)=O)cc2)c(-c2ccc(F)cc2)s1` registered a melting point of 80 to 92 °C. As for `CCN(c1nc(C)cc(C(=O)c2nccs2)n1)c1ccc(C(C)C)cc1Br`, the figure is 97 to 98.5 °C; as for `NC(=O)NS(=O)(=O)c1cccc(Cl)c1Cl`, 197 to 200 °C; as for `CC(=O)c1oc2ccc(C)cc2c1C`, 66.3 to 66.5 °C.

`COc1cc(C(=O)N2CCC(CCN3CCC(C(=O)c4nc5ccccc5n4Cc4ccc(F)cc4)CC3)(c3ccc4c(c3)OCO4)C2)cc(OC)c1OC` (stereo not drawn) had a melting point of 112 to 114 °C. As for `CS(=O)(=O)c1ccc(-c2cnn(-c3ccc(F)c(F)c3)c(=O)c2-c2ccc(Cl)cc2)cc1`, the figure is 187 to 188 °C; as for `CC(=O)OCC(=O)C1(OC(C)=O)CCC2C3CCC4=CC(=O)C=CC4(C)C3C(O)CC21C` (stereo not drawn), 99.5 °C. Consider `CN(Cc1cccc2c1C(=O)N(C1CCC(=O)NC1=O)C2=O)C(=O)Nc1ccc(Cl)c(Cl)c1` (stereo not drawn), for which the melting point is 255 to 257 °C. In turn, `COc1cc2c(c(C)c1OC)CC(C)CC2=O` (stereo not drawn) had a melting point of 106 to 108 °C.

In turn, `CN(C)c1ncc(-c2cc(Cl)cc(Cl)c2Cl)c(N)n1` gave a melting point of 145 to 147 °C. `CCN1CCCC(NC(=O)c2ccc(Nc3ccnc4c(C(F)(F)F)cccc34)cc2)C1` (stereo not drawn) gave a melting point of 177 to 178 °C. `COCCOc1ccc(CCCOC(=O)NS(=O)(=O)NCCc2ccccc2)c(Oc2ncc(C(F)(F)F)cc2Cl)c1` yielded a melting point of 110 to 113 °C.

`CC[C@@]1(C)OC(=O)C(c2ccc(F)cc2)=C1c1ccc(S(C)(=O)=O)cc1` registered a melting point of 120 to 121 °C. As for `CC(=O)Nc1occ(C(C)(C)C)c1C#N`, the figure is 135 °C.

Turning to `CC(=O)N(C(C)=O)c1cc2c(Nc3ccc(Sc4nccn4C)c(Cl)c3)c(C#N)cnc2cc1N1CCC(N2CCCC2)CC1`, the melting point fell in the range of 245 to 247 °C. As for `CC(C)(CO)CCCNC(=O)NCCCC(C)(C)CO`, the figure is 81 to 82 °C; as for `Cc1ccc(-c2[nH]nc(COCCCO)c2-c2ccc(S(N)(=O)=O)cc2)cc1`, 85 to 86 °C; as for `Cc1ccccc1C(CCC(=O)O)Oc1cc(OCc2ccsc2)cc(F)c1C#N` (racemic), 150 to 151 °C. For `Cc1cccc(C)c1CNc1cc(C(=O)N(C)C)cc2c1nc(C)n2C`, the melting point was 142 to 143 °C. As for `C=CCN(CC=C)c1nc(N(CC=C)CC=C)nc(N2CCN(C(=O)n3ccnc3)CC2)n1`, the figure is 94 to 95 °C; as for `CCOC(=O)CCCSc1nccc(NC(N)=NCC(F)(F)F)n1`, 120 to 122 °C. As for `CCN1CCNC(=O)c2ccc(Nc3ncc(Cl)c(N[C@@H]4CCCC[C@H]4NS(C)(=O)=O)n3)cc21`, the figure is 216 to 220 °C. As to `O=[N+]([O-])c1ccccc1OCc1ccccc1`, the melting point was less than 50 °C. As for `O=C(COc1cccc(Cl)c1)NCCO[N+](=O)[O-]`, the figure is 62 to 64 °C; as for `CC(C)(C)OC(=O)NNC(=O)c1cc(=O)c(OCc2ccccc2)c[nH]1`, 160 to 165 °C. As for `Brc1ccc2c(c1)CC(Cc1ccccc1)O2` (stereo not drawn), the figure is 70 to 72 °C.

`Cc1c[nH]c2c(=O)n(CC(=O)N[C@H](C=O)CC(=O)O)cnc12` came in with a melting point of 222 to 226 °C.

Take `O=C(NC1CC1)c1ccc(F)c(F)c1`: the melting point is 104 to 108 °C. As for `COc1ccc(CNc2nc(SC)ncc2C(=O)c2cccnc2)cc1Cl`, the figure is 141 to 142 °C; as for `COc1ccc(N(C(C)C)S(=O)(=O)c2ccc(C)cc2)c([N+](=O)[O-])c1`, 148 to 150 °C.
